Test results taken from patent US20170314074A1, “LPA-ASSOCIATED PROTEIN AND RNA EXPRESSION” (Intermune, Inc., priority 2014, published 2017).

Tests used:
[1] = tested on: normal human lung fibroblasts; test: mRNA expression after LPA induction, Affymetrix Human Gene ST arrays, fibroblasts (Table 4A); format: cell-based; settings: fibroblasts; 1 μM LPA; average of 3 experiments
Method: (§1) Changes in gene expression after 3 hours of LPA induction were profiled on Affymetrix Human Gene ST 2.0 microarrays; differentially expressed genes identified by ANOVA with FDR <0.05 and fold-change >1.2. Process networks associated with differentially expressed genes were defined using MetaCore. Changes in secreted protein expression after 24 hours of LPA induction were profiled on an aptamer-based proteomic platform (1129 proteins); differentially expressed proteins identified by t-test.
(§2) Total RNA was isolated from normal human lung fibroblasts, human bronchial epithelial cells, and human pulmonary alveolar epithelial cells treated for […] with LPA and/or LPAR1 inhibitor. Each treatment condition was assayed in triplicate. Samples were profiled on Affymetrix Human Gene ST Arrays 1.0 and/or 2.0 after preparation using the Ambion WT Expression Kit according to manufacturers' instructions.
Data normalization and all subsequent analyses were performed in Partek Genomics Suite (Partek, St. Louis, Mo.). Data were normalized using the Robust Multi-array Average (RMA) algorithm. Differentially expressed genes were identified by ANOVA with correction for multiple comparisons with p-value with FDR<0.05. A fold-change cut-off was not strictly applied, although the majority of the differentially expressed genes identified have fold-changes greater than 1.2. Genes were included if they were statistically significant for (1) LPA-induction and (2) response to treatment with an LPAR1 inhibitor.
In Tables 1-5 The differentially expressed secreted proteins set forth in Tables 1, 2, and 5 and the differentially expressed mRNAs set forth in Table 3 and 4 were identified by visual inspection of individual dot-plots.
For the gene and protein expression analysis primary fibroblasts (NHLF product #CC-2512 from Lonza group LTD) and primary epithelial cells (NHBE Product #CC-2540 from Lonza; HPAEpiC Product #3200 from Sciencell (USA, California)) were cultured as recommended by the manufacturer, except they were cultured on collagen coated plates. As part of the induction protocol cells were starved overnight in low (0.2 or 0.1% serum) or no serum (0%), prior to stimulation with LPA.

[2] = tested on: fibroblasts and/or epithelial cells; test: mRNA expression after LPA induction, Affymetrix Human Gene ST arrays, fibroblasts and/or epithelial cells (Table 3); format: cell-based
Method: as §1, §2
Data normalization and all subsequent analyses were performed in Partek Genomics Suite (Partek, St. Louis, Mo.). Data were normalized using the Robust Multi-array Average (RMA) algorithm. Differentially expressed genes were identified by ANOVA with correction for multiple comparisons with p-value with FDR<0.05. A fold-change cut-off was not strictly applied, although the majority of the differentially expressed genes identified have fold-changes greater than 1.2. […]

lysophosphatidic acid [LPA]
Effect of 1 μM LPA (fold-change), BIRC3 mRNA [1]: 3.17 fold-change
Effect of 1 μM LPA (fold-change), CHIC2 mRNA [1]: 2.36 fold-change
Effect of 1 μM LPA (fold-change), CNST mRNA [1]: 2.26 fold-change
Effect of 1 μM LPA (fold-change), CTGF mRNA [1]: 4.71 fold-change
Effect of 1 μM LPA (fold-change), CYR61 mRNA [1]: 6.52 fold-change
Effect of 1 μM LPA (fold-change), DKK1 mRNA [1]: 6.36 fold-change
Effect of 1 μM LPA (fold-change), DUSP1 mRNA [1]: 2.76 fold-change
Effect of 1 μM LPA (fold-change), EFNB2 mRNA [1]: 2.61 fold-change
Effect of 1 μM LPA (fold-change), GPR37 mRNA [1]: 2.80 fold-change
Effect of 1 μM LPA (fold-change), HAS2 mRNA [1]: 2.61 fold-change
Effect of 1 μM LPA (fold-change), HBEGF mRNA [1]: 5.11 fold-change
Effect of 1 μM LPA (fold-change), IER3 mRNA [1]: 2.94 fold-change
Effect of 1 μM LPA (fold-change), IL6 mRNA [1]: 4.19 fold-change
Effect of 1 μM LPA (fold-change), KPRP mRNA [1]: 4.31 fold-change
Effect of 1 μM LPA (fold-change), KRTAP1-5 mRNA [1]: 6.49 fold-change
Effect of 1 μM LPA (fold-change), KRTAP4-12 mRNA [1]: 3.23 fold-change
Effect of 1 μM LPA (fold-change), LIF mRNA [1]: 5.15 fold-change
Effect of 1 μM LPA (fold-change), MCP-1/CCL2 mRNA [1]: 5.58 fold-change
Effect of 1 μM LPA (fold-change), MIR218-1 [1]: 3.07 fold-change
Effect of 1 μM LPA (fold-change), PAI-1 mRNA [1]: 2.28 fold-change
Effect of 1 μM LPA (fold-change), PDCD1LG2 mRNA [1]: 2.52 fold-change
Effect of 1 μM LPA (fold-change), PTX3 mRNA [1]: 2.34 fold-change
Effect of 1 μM LPA (fold-change), SERPINB2 mRNA [1]: 2.44 fold-change
Effect of 1 μM LPA (fold-change), TNFAIP3 mRNA [1]: 3.44 fold-change
Effect of 1 μM LPA (fold-change), TXNIP mRNA [1]: −3.79 fold-change
Effect of 1 μM LPA (fold-change), UGCG mRNA [1]: 2.41 fold-change
Effect of 1 μM LPA (fold-change), VGLL3 mRNA [1]: 2.96 fold-change
changes in gene expression induced by LPA [2]: induced significant changes in gene expression
